Data reported in US6962922B2, “Alkynylated quinazoline compounds” (Warner-Lambert Company LLC, priority 2001, dated 2005).

Compound	melting point [°C]
CN(C)C(=O)c1ccc(Cn2c(=O)c3cc(C#CCc4ccccc4)ccc3n(C)c2=O)cc1 [Example 19, N,N-Dimethyl-4-[1-methyl-2,4-dioxo-6-(3-phenyl-prop-1-ynyl)-1,4-dihydro-2H-quinazolin-3-ylmethyl]-benzamide]	171 to 173
Cn1c(=O)n(Cc2ccc(CO)cc2)c(=O)c2cc(C#CCc3ccccc3)ccc21 [Example 24, 3-(4-Hydroxymethyl-benzyl)-1-methyl-6-(3-phenyl-prop-1-ynyl)-1H-quinazoline-2,4-dione]	161 to 164
Cn1c(=O)n(Cc2cccc(Cl)c2)c(=O)c2cc(C#CCc3ccccc3)ccc21 [Example 25, 3-(3-Chloro-benzyl)-1-methyl-6-(3-phenyl-prop-ynyl)-1H-quinazoline-2,4-dione]	164 to 166
Cn1c(=O)n(Cc2cccc(F)c2)c(=O)c2cc(C#CCc3ccccc3)ccc21 [Example 26, 3-(3-Fluoro-benzyl)-1-methyl-6-(3-phenyl-prop-1-ynyl)-1H-quinazoline-2,4-dione]	143 to 144
Cn1c(=O)n(Cc2ccc(Cl)cc2)c(=O)c2cc(C#CCc3ccccc3)ccc21 [Example 27, 3-(4-Chloro-benzyl)-1-methyl-6-(3-phenyl-prop-1-ynyl)-1H-quinazoline-2,4-dione]	175 to 176
Cn1c(=O)n(Cc2cccc(Cl)c2)c(=O)c2cc(C#CCc3ccc(Cl)cc3)ccc21 [Example 31, 3-(3-Chloro-benzyl)-6-[3-(4-chloro-phenyl)-prop-1-ynyl]-1-methyl-1H-quinazoline-2,4-dione]	169 to 171

Next, values leading:

melting point [°C]	Compound
163 to 165	Cn1c(=O)n(Cc2ccc(F)c(F)c2)c(=O)c2cc(C#CCn3ccnc3)ccc21 [Example 29, 3-(3,4-Difluoro-benzyl)-6-(3-imidazol-1-yl-prop-1-ynyl)-1-methyl-1H-quinazoline-2,4-dione]
163 to 165	Cn1c(=O)n(Cc2ccc(F)c(F)c2)c(=O)c2cc(C#CCc3ccc(Cl)cc3)ccc21 [Example 30, 6-[3-(4-Chloro-phenyl)-prop-1-ynyl]-3-(3,4-difluoro-benzyl)-1-methyl-1H-quinazoline-2,4-dione]
167 to 169	Cn1c(=O)n(Cc2ccc(F)c(F)c2)c(=O)c2cc(C#CCn3ccnn3)ccc21 [Example 32, 3-(3,4-Difluoro-benzyl)-1-methyl-6-(3-[1,2,3]triazol-1-yl-prop-1-ynyl)-1H-quinazoline-2,4-dione]
185 to 187	Cn1c(=O)n(Cc2ccc(F)c(F)c2)c(=O)c2cc(C#CCn3cncn3)ccc21 [Example 33, 3-(3,4-Difluoro-benzyl)-1-methyl-6-(3-[1,2,4]triazol-1-yl-prop-1-ynyl)-1H-quinazoline-2,4-dione]
171 to 172	Cn1c(=O)n(Cc2ccc(Cl)c(Cl)c2)c(=O)c2cc(C#CCn3cncn3)ccc21 [Example 34, 3-(3,4-Dichloro-benzyl)-1-methyl-6-(3-[1,2,4]triazol-1-yl-prop-1-ynyl)-1H-quinazoline-2,4-dione]
